# Results from US10864197B2, “Biphenyl sulfonamide compounds for the treatment of kidney diseases or disorders” (Retrophin, Inc., priority 2016, dated 2020).
# Tests used:
# [1] = test system: patients with primary focal segmental glomerulosclerosis (FSGS); test: DUET phase 2 trial: change in urine protein to creatinine (UP/C) ratio, proteinuria; assay type: in vivo, human; conditions: for Complete remission (UP/C ratio <0.3 g/g), number of patients: 8-week double-blind period; for Reduction from Baseline in UP/C ratio (geometric least squares mean reduction) / Reduction from Baseline in UP/C ratio, intent-to-treat analysis: baseline to week 8; for Reduction from Baseline in UP/C ratio, intent-to-treat analysis: missing data imputed as zero change; for Proportion of patients who achieved UP/C ratio ≤1.5 g/g with >40% reduction: week 8; for percentage of patients achieving UP/C ratio ≤1.5 g/g with >40% reduction during open-label period: 8 weeks to 48 weeks
# Description: DUET trial is a phase 2, double-blind, randomized, active-control, dose-escalation study (NCT01613118) that evaluates the efficacy and safety of sparsentan as a treatment for primary focal segmental glomerulosclerosis (FSGS), a rare disorder characterized by massive proteinuria and progressive loss of kidney function. Patients (ranging in age from 8 years to 75 years) with biopsy-proven primary FSGS (or documentation of a genetic mutation in a podocyte protein associated with the disease) having baseline urine protein to creatinine (“UP/C”) ratios greater than […] and estimated glomerular filtration rates greater than 30 ml/min were eligible for the study. The inclusion criteria also included a mean seated blood pressure >[…] and <145/96 mmHg for patients aged 18 years or older, or, for patients aged <18 years of age, a mean seated blood pressure of >90/60 mmHg and <95th percentile for age, gender, and height. The inclusion criteria included an allowance for a stable dose of immunosuppressive medication for ≥1 month. […] Patients who signed consent and met all inclusion and exclusion criteria during the screening phase underwent a 2-week angiotensin receptor blocker (ARB) and angiotensin converting enzyme (ACE) inhibitor washout period before being randomly assigned to one of the three escalating dose cohorts receiving sparsentan (200 mg/day; 400 mg/day; and 800 mg/day) or a fixed maximal dose of active control (the ARB irbesartan, at 300 mg/day) in a 3:1 ratio within each cohort. The primary endpoint was the change in UP/C ratio (determined as a measure of urinary protein excretion) from baseline. […] After the completion of an 8-week double-blind period, the patients continued sparsentan treatment on their assigned doses in an open-label extension for 136 additional weeks. Irbesartan control arm patients were offered sparsentan treatment at the dose they would have received according to the double-blind dose group in which they were enrolled. The analysis of the primary endpoint included 96 randomized patients who received at least one dose of the study drug, and had both baseline and week 8 UP/C ratio values (i.e., had completed 8 weeks of double-blind treatment). The pre-specified analysis order was (1) all sparsentan doses vs. irbesartan; (2) sparsentan 800- and 400-mg doses vs. irbesartan; (3) sparsentan 400-mg dose vs. irbesartan; (4) sparsentan 800-mg dose vs. irbesartan. Baseline or week 8 UP/C ratio data were missing for 9 sparsentan-treated patients and 4 irbesartan-treated patients. An intent-to-treat analysis was conducted, in which the missing data were imputed as zero change in UP/C ratio. […] The results across sparsentan dose cohorts were similar to those observed without imputed data (Table 4).
# [2] = DUET trial: systolic and diastolic blood pressure; assay type: in vivo, human; conditions: double-blind period; irbesartan n=32, sparsentan n=64
# Description: DUET trial is a phase 2, double-blind, randomized, active-control, dose-escalation study (NCT01613118) that evaluates the efficacy and safety of sparsentan as a treatment for primary focal segmental glomerulosclerosis (FSGS), a rare disorder characterized by massive proteinuria and progressive loss of kidney function. Patients (ranging in age from 8 years to 75 years) with biopsy-proven primary FSGS (or documentation of a genetic mutation in a podocyte protein associated with the disease) having baseline urine protein to creatinine (“UP/C”) ratios greater than 1 g/g and estimated glomerular filtration rates greater than 30 ml/min were eligible for the study. […]
# Patients who signed consent and met all inclusion and exclusion criteria during the screening phase underwent a 2-week angiotensin receptor blocker (ARB) and angiotensin converting enzyme (ACE) inhibitor washout period before being randomly assigned to one of the three escalating dose cohorts receiving sparsentan (200 mg/day; 400 mg/day; and 800 mg/day) or a fixed maximal dose of active control (the ARB irbesartan, at 300 mg/day) in a 3:1 ratio within each cohort. The primary endpoint was the change in UP/C ratio (determined as a measure of urinary protein excretion) from baseline. […]
# [3] = Baseline, sparsentan 200-800 mg/day (n=64), irbesartan 300 mg/day (n=32)
# [4] = Baseline, sparsentan 400-800 mg/day (n=51), irbesartan 300 mg/day (n=25)
# [5] = Week 8, sparsentan 200-800 mg/day (n=64), irbesartan 300 mg/day (n=32)
# [6] = Week 8, sparsentan 400-800 mg/day (n=51), irbesartan 300 mg/day (n=25)
# [7] = dose cohort 200 mg sparsentan, irbesartan 300 mg/day
# [8] = dose cohort 400 mg and 800 mg sparsentan, irbesartan 300 mg/day
# [9] = dose cohort 400 mg sparsentan, irbesartan 300 mg/day
# [10] = dose cohort 800 mg sparsentan, irbesartan 300 mg/day
# [11] = dose cohort All (sparsentan 200-800 mg/day; irbesartan 300 mg/day)
# [12] = sparsentan 200-800 mg/day (n=64), irbesartan 300 mg/day (n=32)
# [13] = sparsentan 400-800 mg/day (n=51), irbesartan 300 mg/day (n=25)
smiles,measurement,setting,value
"CCCCC1=NC2(CCCC2)C(=O)N1Cc1ccc(-c2ccccc2-c2nnn[nH]2)cc1 [Irbesartan, irbesartan, reference compound]","Complete remission (UP/C ratio <0.3 g/g), number of patients",[1],in no irbesartan-treated patients
same,"UP/C ratio, maximum",[1]; [3],10.73 g/g
same,"UP/C ratio, mean (SD)",[1]; [3],4.017 (2.6717) g/g
same,"UP/C ratio, median",[1]; [3],3.265 g/g
same,"UP/C ratio, minimum",[1]; [3],0.88 g/g
same,"UP/C ratio, maximum",[1]; [4],10.73 g/g
same,"UP/C ratio, mean (SD)",[1]; [4],3.816 (2.7160) g/g
same,"UP/C ratio, median",[1]; [4],2.970 g/g
same,"UP/C ratio, minimum",[1]; [4],0.88 g/g
same,"UP/C ratio, maximum",[1]; [5],10.19 g/g
same,"UP/C ratio, mean (SD)",[1]; [5],3.164 (2.2713) g/g
same,"UP/C ratio, median",[1]; [5],2.405 g/g
same,"UP/C ratio, minimum",[1]; [5],0.43 g/g
same,"UP/C ratio, maximum",[1]; [6],10.19 g/g
same,"UP/C ratio, mean (SD)",[1]; [6],2.990 (2.3598) g/g
same,"UP/C ratio, median",[1]; [6],2.390 g/g
same,"UP/C ratio, minimum",[1]; [6],0.43 g/g
same,Reduction from Baseline in UP/C ratio (geometric least squares mean reduction),[1]; [7],15.0%
same,Reduction from Baseline in UP/C ratio (geometric least squares mean reduction),[1]; [8],19.0%
same,Reduction from Baseline in UP/C ratio (geometric least squares mean reduction),"[1]; dose cohort 400 mg and 800 mg sparsentan, irbesartan 300 mg/day, listed as irbesartan",19%
same,Reduction from Baseline in UP/C ratio (geometric least squares mean reduction),[1]; [9],28.1%
same,Reduction from Baseline in UP/C ratio (geometric least squares mean reduction),[1]; [10],9.3%
same,Reduction from Baseline in UP/C ratio (geometric least squares mean reduction),[1]; [11],18.5%
same,Reduction from Baseline in UP/C ratio (geometric least squares mean reduction),"[1]; dose cohort All (sparsentan 200-800 mg/day; irbesartan 300 mg/day), listed as irbesartan",19%
same,"Reduction from Baseline in UP/C ratio, intent-to-treat analysis",[1]; dose cohort 200 mg,13.2%
same,"Reduction from Baseline in UP/C ratio, intent-to-treat analysis",[1]; dose cohort 400 mg,23.6%
same,"Reduction from Baseline in UP/C ratio, intent-to-treat analysis",[1]; dose cohort 400 mg and 800 mg,15.9%
same,"Reduction from Baseline in UP/C ratio, intent-to-treat analysis",[1]; dose cohort 800 mg,9.7%
same,"Reduction from Baseline in UP/C ratio, intent-to-treat analysis",[1]; dose cohort All,15.7%
same,"% Change from Baseline to Week 8 in UP/C ratio, geometric LSmeans",[1]; [12],−18.5%
same,"% Change from Baseline to Week 8 in UP/C ratio, geometric LSmeans",[1]; [13],−19.0%
same,Proportion of patients who achieved UP/C ratio ≤1.5 g/g with >40% reduction,[1]; dose cohort 200 mg,0.0%
same,Proportion of patients who achieved UP/C ratio ≤1.5 g/g with >40% reduction,[1]; dose cohort 400 mg,17.7%
same,Proportion of patients who achieved UP/C ratio ≤1.5 g/g with >40% reduction,[1]; dose cohort 400 mg and 800 mg,12.0%
same,Proportion of patients who achieved UP/C ratio ≤1.5 g/g with >40% reduction,[1]; dose cohort 800 mg,0.0%
same,Proportion of patients who achieved UP/C ratio ≤1.5 g/g with >40% reduction,[1]; dose cohort All,9.4%
same,Proportion of patients who achieved UP/C ratio ≤1.5 g/g with >40% reduction,"[1]; dose cohort All, listed as irbesartan",9%
same,mean systolic and diastolic blood pressures relative to baseline,[2],reductions
"CCCCC1=NC2(CCCC2)C(=O)N1Cc1ccc(-c2ccccc2S(=O)(=O)Nc2noc(C)c2C)c(COCC)c1 [Sparsentan, 4′-((2-butyl-4-oxo-1,3-diazaspiro[4.4]non-1-en-3-yl)methyl)-N-(4,5-dimethylisoxazol-3-yl)-2′-(ethoxymethyl)-[1,1′-biphenyl]-2-sulfonamide]","Complete remission (UP/C ratio <0.3 g/g), number of patients",[1],4 patients
same,percentage of patients achieving UP/C ratio ≤1.5 g/g with >40% reduction during open-label period,[1]; patients continuing to receive sparsentan,increased
same,percentage of patients achieving UP/C ratio ≤1.5 g/g with >40% reduction during open-label period,[1]; patients switched from irbesartan to sparsentan,increased
same,"UP/C ratio, maximum",[1]; [3],18.66 g/g
same,"UP/C ratio, mean (SD)",[1]; [3],4.707 (3.7810) g/g
same,"UP/C ratio, median",[1]; [3],3.620 g/g
same,"UP/C ratio, minimum",[1]; [3],0.43 g/g
same,"UP/C ratio, maximum",[1]; [4],18.66 g/g
same,"UP/C ratio, mean (SD)",[1]; [4],4.824 (4.0506) g/g
same,"UP/C ratio, median",[1]; [4],3.530 g/g
same,"UP/C ratio, minimum",[1]; [4],0.43 g/g
same,"UP/C ratio, maximum",[1]; [5],14.47 g/g
same,"UP/C ratio, mean (SD)",[1]; [5],3.300 (3.5719) g/g
same,"UP/C ratio, median",[1]; [5],1.980 g/g
same,"UP/C ratio, minimum",[1]; [5],0.12 g/g
same,"UP/C ratio, maximum",[1]; [6],14.47 g/g
same,"UP/C ratio, mean (SD)",[1]; [6],3.208 (3.4738) g/g
same,"UP/C ratio, median",[1]; [6],1.900 g/g
same,"UP/C ratio, minimum",[1]; [6],0.12 g/g
same,Reduction from Baseline in UP/C ratio (geometric least squares mean reduction),[1]; [7],33.1%
same,Reduction from Baseline in UP/C ratio (geometric least squares mean reduction),[1]; [8],47.4%
same,Reduction from Baseline in UP/C ratio (geometric least squares mean reduction),"[1]; dose cohort 400 mg and 800 mg sparsentan, irbesartan 300 mg/day, listed as sparsentan",47%
same,Reduction from Baseline in UP/C ratio (geometric least squares mean reduction),[1]; [9],52.7%
same,Reduction from Baseline in UP/C ratio (geometric least squares mean reduction),[1]; [10],41.3%
same,Reduction from Baseline in UP/C ratio (geometric least squares mean reduction),[1]; [11],44.8%
same,Reduction from Baseline in UP/C ratio (geometric least squares mean reduction),"[1]; dose cohort All (sparsentan 200-800 mg/day; irbesartan 300 mg/day), listed as sparsentan",45%
same,"Reduction from Baseline in UP/C ratio, intent-to-treat analysis",[1]; dose cohort 200 mg,33.1%
same,"Reduction from Baseline in UP/C ratio, intent-to-treat analysis",[1]; dose cohort 400 mg,50.5%
same,"Reduction from Baseline in UP/C ratio, intent-to-treat analysis",[1]; dose cohort 400 mg and 800 mg,44.8%
same,"Reduction from Baseline in UP/C ratio, intent-to-treat analysis",[1]; dose cohort 800 mg,38.4%
same,"Reduction from Baseline in UP/C ratio, intent-to-treat analysis",[1]; dose cohort All,42.7%
same,"% Change from Baseline to Week 8 in UP/C ratio, geometric LSmeans",[1]; [12],−44.8%
same,"% Change from Baseline to Week 8 in UP/C ratio, geometric LSmeans",[1]; [13],−47.4%
same,Proportion of patients who achieved UP/C ratio ≤1.5 g/g with >40% reduction,[1]; dose cohort 200 mg,15.4%
same,Proportion of patients who achieved UP/C ratio ≤1.5 g/g with >40% reduction,[1]; dose cohort 400 mg,38.1%
same,Proportion of patients who achieved UP/C ratio ≤1.5 g/g with >40% reduction,[1]; dose cohort 400 mg and 800 mg,31.4%
same,Proportion of patients who achieved UP/C ratio ≤1.5 g/g with >40% reduction,[1]; dose cohort 800 mg,26.7%
same,Proportion of patients who achieved UP/C ratio ≤1.5 g/g with >40% reduction,[1]; dose cohort All,28.1%
same,Proportion of patients who achieved UP/C ratio ≤1.5 g/g with >40% reduction,"[1]; dose cohort All, listed as sparsentan",28%
same,mean systolic and diastolic blood pressures relative to baseline,[2],reduction was statistically significant
